Patent US12070452B2, “Compounds targeting HSP110 protein for cancer treatment” (INSERM (Institut National de la Santé et de la Recherche …, priority 2018, dated 2024)

Columns and labels:
human protein HSP110 = target: T1, human protein HSP110 (Homo sapiens, UniProt Q92598); assay: HSP110 anti-aggregation function (luciferase substrate test); format: biochemical; settings: human HSP110 1.5 μM with firefly luciferase, 30 min at 42° C.; read-out: IC50 of HSP110 anti-aggregating activity
T1 construct: DNA coding the NBD-HSP110 (from human-HSP110)
T1 sequence (Q92598 whole entry, looked up): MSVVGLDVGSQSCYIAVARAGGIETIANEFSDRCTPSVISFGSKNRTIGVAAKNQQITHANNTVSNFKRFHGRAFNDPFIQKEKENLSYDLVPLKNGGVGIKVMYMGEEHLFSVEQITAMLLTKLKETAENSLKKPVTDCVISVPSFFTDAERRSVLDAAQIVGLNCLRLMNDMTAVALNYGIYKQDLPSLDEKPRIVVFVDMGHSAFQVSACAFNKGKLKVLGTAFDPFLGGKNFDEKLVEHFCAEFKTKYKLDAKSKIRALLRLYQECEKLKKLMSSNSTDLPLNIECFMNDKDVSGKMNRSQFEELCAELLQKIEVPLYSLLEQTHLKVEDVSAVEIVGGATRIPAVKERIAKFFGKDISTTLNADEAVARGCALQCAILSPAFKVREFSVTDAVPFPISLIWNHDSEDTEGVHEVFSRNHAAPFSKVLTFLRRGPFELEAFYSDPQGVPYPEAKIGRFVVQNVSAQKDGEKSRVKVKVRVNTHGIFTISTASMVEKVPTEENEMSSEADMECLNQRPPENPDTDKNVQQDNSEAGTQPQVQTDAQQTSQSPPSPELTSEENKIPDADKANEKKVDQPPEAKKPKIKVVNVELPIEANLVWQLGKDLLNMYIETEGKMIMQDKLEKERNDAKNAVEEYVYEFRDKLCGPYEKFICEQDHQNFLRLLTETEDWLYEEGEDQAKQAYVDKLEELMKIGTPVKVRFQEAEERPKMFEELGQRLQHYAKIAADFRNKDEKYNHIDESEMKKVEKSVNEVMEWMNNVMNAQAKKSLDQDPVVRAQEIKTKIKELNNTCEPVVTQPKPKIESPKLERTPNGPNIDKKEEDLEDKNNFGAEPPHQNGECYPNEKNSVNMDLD
Protocol: Anti-aggregation function of HSP110 was evaluated as described by O H et al (The Journal of biological chemistry 274, 15712-15718 (1999)). The human protein HSP110 (obtained as described above) at a concentration of 1.5 μM was incubated with firefly luciferase (from Sigma—from Photinus pyralis) in reaction buffer and heated in water bath for 30 min at 42° C.
Compounds of the present invention were added in reaction buffer to achieve the indicated concentrations and the final DMSO concentration was held constant at 1%. The heated reaction was diluted 10 times into buffer containing 60% of rabbit reticulocytelysate and incubated for 2 hours. The luciferase activity was measured by diluting 5 times the solution in HEPES and adding 5 μL of the solution in luciferase substrate (50 μL of Luciferase Assay System—Promega E1501 diluted in HEPES). The bioluminescence was reading with Envision Perkin Elmer.
The percentage of activity (x) was calculated by using the following equation: x=[(A−B)/(C−B)]×100, where (A) is the luciferase luminescence in presence of compounds of the invention, (B) in absence of HSP110 and (C) in presence of DMSO (Control). The percentage of total folding HSP110-promoted (mean=36%) was calculated considering as 100% the luminescence of luciferase incubated with HSP110 without heat shock. The IC50 were calculated from the dose-response curves, which were fitted by GraphPrism (Equation: Y=100/(1+10^((Log IC50−X)*HillSlope)).

HSP110:STAT3 complex = target: T2, HSP110:STAT3 complex (Homo sapiens, UniProt Q92598); assay: Immunoprecipitation of HSP110:STAT3 complex in SW480 cells; format: cell-based; settings: SW480 shCtrl cells, 10 μM, 48 h
T2 construct: disrupting HSP110:STAT3 complex within the cell using human colorectal SW480 cancer cells; endogenous in cells; host or cells: SW480 cells carrying control shRNA (shCtrl); sh110 cells as HSP110-depleted control
T2 sequence (Q92598 2-858 limits assumed, one chain of several): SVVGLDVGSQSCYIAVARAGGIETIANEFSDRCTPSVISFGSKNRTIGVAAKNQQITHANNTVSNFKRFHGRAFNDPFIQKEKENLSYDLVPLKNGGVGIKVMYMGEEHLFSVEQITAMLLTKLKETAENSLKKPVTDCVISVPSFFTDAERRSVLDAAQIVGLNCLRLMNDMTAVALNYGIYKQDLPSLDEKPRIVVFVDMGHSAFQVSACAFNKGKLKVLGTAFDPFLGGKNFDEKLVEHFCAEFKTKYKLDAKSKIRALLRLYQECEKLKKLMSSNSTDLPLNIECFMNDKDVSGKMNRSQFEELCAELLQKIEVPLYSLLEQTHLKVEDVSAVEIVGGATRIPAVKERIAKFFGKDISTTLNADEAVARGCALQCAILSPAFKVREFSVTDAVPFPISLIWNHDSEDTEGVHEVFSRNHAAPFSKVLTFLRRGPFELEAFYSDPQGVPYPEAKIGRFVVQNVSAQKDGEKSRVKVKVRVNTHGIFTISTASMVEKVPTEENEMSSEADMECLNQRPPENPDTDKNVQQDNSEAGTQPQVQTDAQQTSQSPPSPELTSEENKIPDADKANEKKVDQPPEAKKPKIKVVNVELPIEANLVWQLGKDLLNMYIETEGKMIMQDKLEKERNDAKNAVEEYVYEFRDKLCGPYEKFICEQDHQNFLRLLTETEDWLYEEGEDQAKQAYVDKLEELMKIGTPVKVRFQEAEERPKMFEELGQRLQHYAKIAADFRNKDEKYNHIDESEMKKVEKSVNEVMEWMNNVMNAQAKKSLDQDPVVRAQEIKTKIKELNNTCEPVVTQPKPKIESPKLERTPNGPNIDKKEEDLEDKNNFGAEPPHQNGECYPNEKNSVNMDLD
Protocol: FIG. 2A: Immunoprecipitation (IP) analysis of HSP110 protein (first line), STAT3 protein (second line) compared with total Immunoglobuline (Ig) and actin in SW480 cells treated with (from left to the right column) non-relevant antibody as control (called NT a Normal rabbit IgG (sc-2027) from Santa Cruz Biotechnologies), compound 52 (related to formula (III)), compound 33 (related to formula (II)), compound 51 (related to formula (IV)) and comparative compound 61 at a concentration of 10 μM during 48 h on shCtrl cells transfected with shRNA for shRNA control (referenced ShCtrl IP:STAT3 for the five first columns) or HSP110-silencing (sh110) (referenced sh110-IP:STAT3 for the two last columns) (from the left to the right columns). Immunoprecipitation analysis of HSP110 (first line), STAT3 (second line) compared with total Ig and actin (second blot in the right) is observed with shCtrl cells transfected with shRNA for shRNA control (shCtrl) or HSP110-silencing (sh110) (left to right columns).
FIG. 2B: Quantification of HSP110:STAT3 disruption in percentage considering the total amount of HSP110 protein normalized by the signal intensity of the Ig band of FIG. 1 panel A. (Ordinate: Percentage of STAT3:HSP110 protein interaction (scale 50)). The histogram measured quantification in percentage for ShCtrl IP: STAT3 treated with Ctrl, compounds 52, 33, 51 and comparative compound 61, and for shCtrl cells transfected with shRNA for shRNA control referenced ShCtrl IP: STAT3) or HSP110-silencing (sh110) (referenced sh110-IP: STAT3) (from the left to the right column)
(§1) Immunoprecipitation test were realized on human colorectal cancer cells (SW480 and HCT116 cell lines), using a control depleted in HSP110 called Sh110 and a not depleted cells in HSP110. STAT3 phosphorylation is then […] by compounds 33 and 52. Depletion of HSP110 in the negative control blocked the phosphorylation of STAT3 without affecting STAT3 overall levels (FIGS. 2 and 3).

phosphorylated STAT3 = assay: P-STAT3 level in SW480 cells (immunoblot quantification); format: cell-based, human; settings: 10 μM, 48 h, normalized by actin
Protocol: Results for SW480 cells treated during 48 h with non-relevant antibody (called NT), compound 52, compound 33, compound 51 and comparative compound 61 at 10 μM, and sh110 cells correspond to the third fourth, fifth, sixth and last columns from the left to the right.
FIG. 3B: Quantification of P-STAT3 level (in percentage) normalized by actin. […] (Ordinate: Percentage of P-STAT3 level (scale 50)
as §1

CT26 cells = assay: Flow cytometric analysis of cell death (Annexin V / 7-AAD) in CT26 cells; format: cell-based, mouse; settings: 10 μM, 96 h
Protocol: FIG. 5A: Flow cytometric analysis of cell death in CT26 cells treated with the compound 33 (at the bottom left), compound 52 (at the bottom middle), comparative compound 61 (at the bottom right) at 10 μM during 96 h compared with Control (DMSO) (at the top left), and Cisplatin (at the top middle and top right). Live cells were double negative for 7-AAD (Y axis) and Annexin V (X axis), early apoptotic cells were positive for Annexin V, late apoptotic cells were positive for Annexin V and 7-AAD ([…]) and dead cells were positive for 7-AAD only.
FIG. 5B: Quantification of cell viability (in percentage) from flow cytometry data are represented (Control, cells, compounds 33, 52 and 61 from the left to the right bars). (Abscissa Negativity of 7-AAD; Ordinate Negativity of Annexin V).
We then analyzed cell death in CT26 cells treated with 10 μM during 96 h of compounds 33, 52 and 61 by flow cytometry. Cells were also treated with a well know anti-cancer compound, called cisplatin. Cells were marked for 7-aminoactinomycin D, which exclusively bind on death cells and for Annexin V, a well-known indicators of early stage apoptosis, thanks to its ability to bind to phosphatidylserine.

HSP110/Myd88 interaction = target: T3, HSP110/Myd88 interaction (Homo sapiens, UniProt Q92598); assay: Immunoprecipitation of HSP110/Myd88 in DLBCL cell line; format: cell-based; settings: IP Myd88, Western Blot
T3 construct: endogenous in cells
T3 sequence (Q92598 2-858 limits assumed): as the sequence (Q92598 2-858 limits assumed, one chain of several) above
Text: FIG. 10A: Immunoprecipitation (IP) analysis of HSP110 (first line), Myd88 (second line), heavy chains (third line) and actin (fourth line) in large B cell lymphoma cell lines (DLBCL).
Left part of FIG. 10A (“Inputs”): treated with (from left to right column of the left part of FIG. 10A) DMSO, compound 52 (5052), compound 33 (5033) and compound 61 (5061) (Negative control);
Middle part of FIG. 10A (“IP Myd88”): treated with (from left to right column of the middle part of FIG. 10A) DMSO, compound 52, compound 33 and compound 61 (as the negative control); Myd88 was immunoprecipitated with an antibody specifically directed against Myd88.
MyD88 was immuno-precipitated from the cell line which has been non-treated or treated with the HSP110 inhibitors.

Row | IC50 (human protein HSP110) [µM] | percentage of interaction of STAT3:HSP110 (HSP110:STAT3 complex) | HSP110/Myd88 interaction (HSP110/Myd88 interaction) | Compound | P-STAT3 level (phosphorylated STAT3) | cell death / apoptosis (Annexin V and 7-AAD marking) (CT26 cells)
1 | 227.5 ± 1.9 | not decrease | does not inhibit | N#CCc1cccc(-c2cnc(Cl)c(/C=C/c3ccccc3)c2)c1 [compound 61, (E)-2-(3-(6-Chloro-5-styrylpyridin-3-yl)phenyl) acetonitrile, reference compound] | 100% | don't seem to be marked
2 |  | not decrease |  | COc1ccc(-c2cnc(-c3cnc(-c4ccc(OC)c(OC)c4)c(C)c3)c(/C=C/c3ccccc3)c2)cc1OC [compound 51, (E)-5,6′-Bis(3,4-dimethoxyphenyl)-5′-methyl-3-styryl-2,3′-bipyridine] | about 50% | 
